Test results published in patent publication US11872216B2, “Pharmaceutical formulation comprising cineole and amoxicillin” (priority 2016, dated 2024).
Where “and” joins values, the source holds several entries; their conditions need not be identical. Identical values can stand only once.

Tested on: amoxicillin-sensitive bacterial strain of Escherichia coli (ATCC 8739)
Experiment: Enzymatic test in agar medium (inhibition halos of disks with or without β-lactamase and cineole)
Format: cell-based
Description: This study is based on an enzymatic test first placing AMX combined with cineole in contact with ß-lactamases. The antibacterial activity of this antibiotic was then checked on an AMX-sensitive strain of Escherichia coli.
An amoxicillin-sensitive bacterial strain of Escherichia coli (ATCC 8739) was supplied by the national hygiene institute (INH-Rabat).
For each test performed, precultures of this E. coli strain of 24 h at 37° C. were prepared from this bacterial strain (frozen beforehand at −20° C.). From these precultures, bacterial inocula of 3.3×10^6 CFU/ml were prepared, adjusting the optical density to 540 nm.
Disks charged with antibiotics (diameter Ø=6 mm) were used for the enzymatic test in agar medium (AMX: amoxicillin and AMC: amoxicillin+clavulanic acid). They were supplied by the national hygiene institute (INH-Rabat). The AMX used for the enzymatic test in liquid medium was supplied by Sigma Aldrich (France).
The cineole was supplied by Sigma Aldrich (France). […]
Starting with a 24 h sensitive preculture of E. coli, eighteen Petri dishes of the agar MH medium were inoculated by surface plating. […] 10 μl of β-lactamase at 0.03 U/ml and 10 μl of cineole at 0.002 μl/ml were added to the surface of each of these three disks. • After incubation of the eight Petri dishes for 18 h at 37° C., the diameters of the inhibition halos were measured.

Row | SMILES | Diameters of the halos (disks AMX 20 μg, AMC 30 μg, β-lactamase 0.03 U/ml, cineole 0.002 μl/ml where added, 18 h at 37° C., 6 mm is the diameter of the disk, listed as AMX) | infra-inhibitory concentration (highest concentration without any inhibition) (microdilution method)
1 | CC1(C)S[C@@H]2[C@H](NC(=O)[C@H](N)c3ccc(O)cc3)C(=O)N2[C@H]1C(=O)O [amoxicillin, Amoxicillin] | 15 mm and 15 ± 1.0 mm | 
2 | CC12CCC(CC1)C(C)(C)O2 [cineole, 1,8-cineole] |  | ~0.002 μl/ml
